Several values for one entry are separate records, joined by “and”; a condition that tells them apart may be missing. Equal values may be shown once. Inconclusive results and toxic doses are left out.
System: L1210 leukemia ip in BDF1 mice, survival T/C
Experiment: NCI In Vivo Anticancer Drug Screen. Data for tumor model L1210 Leukemia (intraperitoneal) in B6D2F1 (BDF1) mice
Details: endpoint: mean survival time, higher = longer survival
In short: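 Ratio derived from survival: compound-dosed mice over vehicle-dosed mice, all bearing a transplantable tumor.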

[1] = dose: 100.0 mg/kg/injection, schedule: Q01DX001 (ip), vehicle: saline
[2] = dose: 100.0 mg/kg/injection, schedule: Q01DX009 (ip), vehicle: Klucel (hydroxypropylcellulose) (HPC)
[3] = dose: 100.0 mg/kg/injection, schedule: Q04DX003 (ip), vehicle: Klucel (hydroxypropylcellulose) (HPC)
[4] = dose: 100.0 mg/kg/injection, schedule: Q04DX003 (ip), vehicle: saline
[5] = dose: 200.0 mg/kg/injection, schedule: Q01DX001 (ip), vehicle: saline
[6] = dose: 200.0 mg/kg/injection, schedule: Q01DX009 (ip), vehicle: Klucel (hydroxypropylcellulose) (HPC)
[7] = dose: 200.0 mg/kg/injection, schedule: Q04DX003 (ip), vehicle: Klucel (hydroxypropylcellulose) (HPC)
[8] = dose: 200.0 mg/kg/injection, schedule: Q04DX003 (ip), vehicle: saline
[9] = dose: 400.0 mg/kg/injection, schedule: Q01DX001 (ip), vehicle: saline
[10] = dose: 400.0 mg/kg/injection, schedule: Q01DX009 (ip), vehicle: Klucel (hydroxypropylcellulose) (HPC)
[11] = dose: 400.0 mg/kg/injection, schedule: Q04DX003 (ip), vehicle: Klucel (hydroxypropylcellulose) (HPC)
[12] = dose: 400.0 mg/kg/injection, schedule: Q04DX003 (ip), vehicle: saline
[13] = dose: 100.0 mg/kg/injection, schedule: Q01DX001 (ip), vehicle: Klucel (hydroxypropylcellulose) (HPC)
[14] = dose: 200.0 mg/kg/injection, schedule: Q01DX001 (ip), vehicle: Klucel (hydroxypropylcellulose) (HPC)
[15] = dose: 400.0 mg/kg/injection, schedule: Q01DX001 (ip), vehicle: Klucel (hydroxypropylcellulose) (HPC)
[16] = dose: 100.0 mg/kg/injection, schedule: Q04DX003 (ip), vehicle: saline with Tween-80
[17] = dose: 200.0 mg/kg/injection, schedule: Q04DX003 (ip), vehicle: saline with Tween-80
[18] = dose: 100.0 mg/kg/injection, schedule: Q04DX002 (ip), vehicle: saline
[19] = dose: 200.0 mg/kg/injection, schedule: Q04DX002 (ip), vehicle: saline
[20] = dose: 400.0 mg/kg/injection, schedule: Q04DX002 (ip), vehicle: saline

## O=C(O)C1C2CC(C(Br)C2Br)C1C(=O)O (configuration not stated)
[1]
  T/C: 98 % of control
[2]
  T/C: 95 % of control
dose: 100.0 mg/kg/injection, schedule: Q01DX009 (ip), vehicle: acetone
  T/C: 98 % of control
[3]
  T/C: 100 % of control
[4]
  T/C: 94 % of control
[5]
  T/C: 95 % of control
[6]
  T/C: 97 % of control
dose: 200.0 mg/kg/injection, schedule: Q01DX009 (ip), vehicle: acetone
  T/C: 93 % of control
[7]
  T/C: 103 % of control
[8]
  T/C: 94 % of control
[9]
  T/C: 96 % of control
[10]
  T/C: 98 % of control
dose: 400.0 mg/kg/injection, schedule: Q01DX009 (ip), vehicle: acetone
  T/C: 104 % of control
[11]
  T/C: 105 % of control
[12]
  T/C: 91 % of control

## Cc1ccc(S(=O)(=O)N(C)c2cc(Cl)c(I)cc2Cl)cc1
[13]
  T/C: 97 % of control
[3]
  T/C: 93 % of control and 94 % of control
[14]
  T/C: 97 % of control
[7]
  T/C: 98 % of control
[15]
  T/C: 94 % of control
[11]
  T/C: 97 % of control and 98 % of control

## CC(=O)N/C(=C\c1ccccc1)C(N)=O
[16]
  T/C: 91 % of control
[17]
  T/C: 97 % of control
dose: 400.0 mg/kg/injection, schedule: Q04DX003 (ip), vehicle: saline with Tween-80
  T/C: 96 % of control

## CCCCCCCCc1ccc(OC(C)OCCOCCOCC)cc1 (configuration not stated)
[18]
  T/C: 88 % of control
[19]
  T/C: 88 % of control
[20]
  T/C: 98 % of control

## COC1=NS(=O)(=O)C2(O1)c1ccccc1-c1ccccc12
dose: 100.0 mg/kg/injection, schedule: Q04DX002 (ip), vehicle: Klucel (hydroxypropylcellulose) (HPC)
  T/C: 96 % of control
dose: 200.0 mg/kg/injection, schedule: Q04DX002 (ip), vehicle: Klucel (hydroxypropylcellulose) (HPC)
  T/C: 96 % of control
dose: 400.0 mg/kg/injection, schedule: Q04DX002 (ip), vehicle: Klucel (hydroxypropylcellulose) (HPC)
  T/C: 116 % of control

## COc1ccccc1OCC(=O)N1CCCCC1
[18]
  T/C: 101 % of control
[19]
  T/C: 107 % of control
[20]
  T/C: 90 % of control

## O=C1c2cccc([N+](=O)[O-])c2C(=O)N1c1ncn[nH]1
dose: 44.0 mg/kg/injection, schedule: Q01DX001 (ip), vehicle: saline
  T/C: 93 % of control and 92 % of control
dose: 50.0 mg/kg/injection, schedule: Q01DX001 (ip), vehicle: saline
  T/C: 100 % of control
dose: 66.0 mg/kg/injection, schedule: Q01DX001 (ip), vehicle: saline
  T/C: 93 % of control and 102 % of control
[1]
  T/C: 95 % of control and 92 % of control
dose: 150.0 mg/kg/injection, schedule: Q01DX001 (ip), vehicle: saline
  T/C: 98 % of control
[5]
  T/C: 111 % of control
[9]
  T/C: 91 % of control

## O=c1[nH]c(=O)[nH]c(=O)[nH]1
[2]
  T/C: 100 % of control
[4]
  T/C: 90 % of control
[6]
  T/C: 91 % of control
[8]
  T/C: 90 % of control
[10]
  T/C: 101 % of control
[12]
  T/C: 98 % of control

## C[C@]12CC[C@H](O)CC1=CC[C@@H]1[C@@H]2CC[C@](C)(C(=O)O)[C@H]1CC1Nc2ccccc2C1=O (some centres not stated)
[1]
  T/C: 95 % of control
[4]
  T/C: 91 % of control
[5]
  T/C: 92 % of control and 91 % of control
[8]
  T/C: 95 % of control
[9]
  T/C: 97 % of control and 86 % of control
[12]
  T/C: 104 % of control

## CNC(=N)c1ccc(NC(=N)c2ccc(NC(=N)c3ccc(NC(=O)c4ccc(C(=N)NC)cc4)cc3)cc2)cc1
dose: 3.75 mg/kg/injection, schedule: Q01DX015 (ip), vehicle: water
  T/C: 104 % of control
dose: 7.5 mg/kg/injection, schedule: Q01DX015 (ip), vehicle: water
  T/C: 101 % of control
dose: 15.0 mg/kg/injection, schedule: Q01DX015 (ip), vehicle: water
  T/C: 108 % of control
dose: 20.0 mg/kg/injection, schedule: Q01DX Z (ip), vehicle: water
  T/C: 177 % of control
dose: 30.0 mg/kg/injection, schedule: Q01DX015 (ip), vehicle: water
  T/C: 176 % of control and 180 % of control
dose: 50.0 mg/kg/injection, schedule: Q01DX015 (ip), vehicle: water
  T/C: 97 % of control

## CC1(C)C2CCC1(CS(=O)(=O)O)C(=O)C2.[Ag] (configuration not stated)
dose: 3.12 mg/kg/injection, schedule: Q01DX009 (ip), vehicle: saline with Tween-80
  T/C: 92 % of control
dose: 6.25 mg/kg/injection, schedule: Q01DX009 (ip), vehicle: saline with Tween-80
  T/C: 87 % of control
dose: 12.5 mg/kg/injection, schedule: Q01DX009 (ip), vehicle: saline with Tween-80
  T/C: 90 % of control

## O=C(Oc1ccc(N=Cc2ccc3c(c2)OCO3)cc1)Oc1ccc(N=Cc2ccc3c(c2)OCO3)cc1
dose: 100.0 mg/kg/injection, schedule: Q01DX001 (ip), vehicle: carboxymethylcellulose (CMC)
  T/C: 96 % of control
dose: 200.0 mg/kg/injection, schedule: Q01DX001 (ip), vehicle: carboxymethylcellulose (CMC)
  T/C: 95 % of control
dose: 400.0 mg/kg/injection, schedule: Q01DX001 (ip), vehicle: carboxymethylcellulose (CMC)
  T/C: 93 % of control

## CC(C)(O)S(=O)(=O)O
dose: 100.0 mg/kg/injection, schedule: Q04DX002 (ip), vehicle: saline with Tween-80
  T/C: 95 % of control
dose: 200.0 mg/kg/injection, schedule: Q04DX002 (ip), vehicle: saline with Tween-80
  T/C: 101 % of control
dose: 400.0 mg/kg/injection, schedule: Q04DX002 (ip), vehicle: saline with Tween-80
  T/C: 98 % of control

## NC(=S)c1ccc2ccc3cccnc3c2n1
dose: 50.0 mg/kg/injection, schedule: Q04DX003 (ip), vehicle: saline with Tween-80
  T/C: 95 % of control
[16]
  T/C: 104 % of control
[17]
  T/C: 106 % of control

## COc1cccc[n+]1[O-]
dose: 50.0 mg/kg/injection, schedule: Q01DX009 (ip), vehicle: saline
  T/C: 94 % of control
dose: 100.0 mg/kg/injection, schedule: Q01DX009 (ip), vehicle: saline
  T/C: 101 % of control
[4]
  T/C: 96 % of control
dose: 200.0 mg/kg/injection, schedule: Q01DX009 (ip), vehicle: saline
  T/C: 89 % of control
[8]
  T/C: 92 % of control

## Cc1cc(=O)[nH]c2oc(-c3ccccc3)cc(=O)c12
[1]
  T/C: 101 % of control
[5]
  T/C: 103 % of control
[9]
  T/C: 100 % of control

## O=C1C2C3c4ccccc4C(C2C(=O)N1c1ccc(Cl)cc1)[n+]1ccccc13 (configuration not stated)
dose: 75.0 mg/kg/injection, schedule: Q01DX001 (ip), vehicle: other
  T/C: 96 % of control
dose: 150.0 mg/kg/injection, schedule: Q01DX001 (ip), vehicle: other
  T/C: 103 % of control

## Clc1ccc(/C=N\Nc2ccccc2)c(Cl)c1
[13]
  T/C: 103 % of control
[14]
  T/C: 101 % of control
[15]
  T/C: 109 % of control

## O=C(C=C(C(F)(F)F)C(F)(F)F)c1c2ccccc2cc2ccccc12
dose: 0.18 mg/kg/injection, schedule: Q01DX009 (ip), vehicle: DMSO
  T/C: 87 % of control
dose: 0.37 mg/kg/injection, schedule: Q01DX009 (ip), vehicle: DMSO
  T/C: 99 % of control
dose: 0.75 mg/kg/injection, schedule: Q01DX009 (ip), vehicle: DMSO
  T/C: 97 % of control
dose: 1.5 mg/kg/injection, schedule: Q01DX009 (ip), vehicle: DMSO
  T/C: 93 % of control
dose: 3.0 mg/kg/injection, schedule: Q01DX009 (ip), vehicle: DMSO
  T/C: 93 % of control and 88 % of control
dose: 3.0 mg/kg/injection, schedule: Q04DX003 (ip), vehicle: DMSO
  T/C: 100 % of control
dose: 6.0 mg/kg/injection, schedule: Q04DX003 (ip), vehicle: DMSO
  T/C: 98 % of control
dose: 12.0 mg/kg/injection, schedule: Q04DX003 (ip), vehicle: DMSO
  T/C: 97 % of control
dose: 12.5 mg/kg/injection, schedule: Q04DX003 (ip), vehicle: DMSO
  T/C: 93 % of control
